≈ marks a conversion by molar mass, not a printed value. Where a SMILES comes first, the peptide text is derived from it. Bridges are numbered along the chain shown (N, C = ends). [ ]: non-standard residue; d: D form. d(aIle) = CC[C@H](C)[C@@H](N)C(=O)O; dNMeF = CN[C@H](Cc1ccccc1)C(=O)O
Tests used:
Format in all cases: functional
[1] = test system: Staphylococcus aureus; experiment: Antibacterial activity against methicillin resistant Staphylococcus aureus ATCC 33591 incubated for 24 hrs
[2] = test system: Bacillus subtilis; experiment: Antibacterial activity against Bacillus subtilis 168 incubated for 24 hrs
[3] = test system: Staphylococcus aureus; experiment: Antibacterial activity against methicillin resistant Staphylococcus aureus
[4] = test system: Staphylococcus aureus; experiment: Antibacterial activity against Staphylococcus aureus ATCC 29213
[5] = test system: Bacillus subtilis; experiment: Antibacterial activity against Bacillus subtilis ATCC 6051 incubated for 16 hrs by UV/Visible absorbance method
[6] = test system: Staphylococcus aureus; experiment: Antibacterial activity against Staphylococcus aureus ATCC 29213 incubated for 16 hrs by UV/Visible absorbance method
[7] = test system: Staphylococcus aureus; experiment: Antibacterial activity against Staphylococcus aureus SH1000 incubated for 24 hrs by CLSI-broth microdilution method
[8] = test system: Staphylococcus aureus; experiment: Antibacterial activity against Staphylococcus aureus ATCC 29213 incubated for 24 hrs by CLSI-based broth microdilution method
[9] = Staphylococcus aureus, SH1000, read-out: MIC

## CC[C@H](C)[C@H](NC(=O)[C@@H](Cc1ccccc1)NC)C(=O)N[C@@H](CO)C(=O)N[C@H](CCC(N)=O)C(=O)N[C@@H](C(=O)N[C@H](C(=O)N[C@@H](CO)C(=O)N[C@H]1C(=O)N[C@@H](C)C(=O)N[C@@H](CCCN)C(=O)N[C@@H]([C@@H](C)CC)C(=O)O[C@H]1C)[C@@H](C)CC)[C@@H](C)CC
[1]
  MIC: 2 µg/mL (≈ 1.66 µM)
[2]
  MIC: 0.25 µg/mL (≈ 0.208 µM)

## CC[C@H](C)[C@H](NC(=O)[C@@H](Cc1ccccc1)NC)C(=O)N[C@@H](C)C(=O)N[C@H](CCC(N)=O)C(=O)N[C@@H](C(=O)N[C@H](C(=O)N[C@@H](CO)C(=O)N[C@H]1C(=O)N[C@@H](C)C(=O)N[C@@H](CCCCN)C(=O)N[C@@H]([C@@H](C)CC)C(=O)O[C@H]1C)[C@@H](C)CC)[C@@H](C)CC
[3]
  MIC: 1 µg/mL (≈ 0.833 µM)
[4]
  MIC: 0.5 µg/mL (≈ 0.416 µM)

## CC[C@H](C)[C@H](NC(=O)[C@@H](Cc1ccccc1)NC)C(=O)N[C@@H](CO)C(=O)N[C@H](CCC(N)=O)C(=O)N[C@@H](C(=O)N[C@H](C(=O)N[C@@H](CO)C(=O)N[C@H]1C(=O)N[C@@H](C)C(=O)N[C@@H](CCCCNC(=N)N)C(=O)N[C@@H]([C@@H](C)CC)C(=O)O[C@H]1C)[C@@H](C)CC)[C@@H](C)CC
[1]
  MIC: 1 µg/mL (≈ 0.795 µM)
[2]
  MIC: 0.125 µg/mL (≈ 0.0993 µM)

## CC[C@H](C)[C@H](NC(=O)[C@@H](Cc1ccccc1)NC)C(=O)N[C@@H](CO)C(=O)N[C@H](CCC(N)=O)C(=O)N[C@@H](C(=O)N[C@H](C(=O)N[C@@H](CO)C(=O)N[C@H]1C(=O)N[C@@H](CCCCN)C(=O)N[C@@H](CCCNC(=N)N)C(=O)N[C@@H]([C@@H](C)CC)C(=O)O[C@H]1C)[C@@H](C)CC)[C@@H](C)CC
[4]
  MIC: 6 µg/mL (≈ 4.61 µM)
[5]
  MIC: 1 µg/mL (≈ 0.768 µM)

## CC[C@H](C)[C@H](NC(=O)[C@@H](Cc1ccccc1)NC)C(=O)N[C@@H](CO)C(=O)N[C@H](CCC(N)=O)C(=O)N[C@@H](C(=O)N[C@H](C(=O)N[C@@H](CO)C(=O)N[C@H]1C(=O)N[C@@H](C)C(=O)N[C@@H](CCN)C(=O)N[C@@H]([C@@H](C)CC)C(=O)O[C@H]1C)[C@@H](C)CC)[C@@H](C)CC
[1]
  MIC: 2 µg/mL (≈ 1.68 µM)
[2]
  MIC: 1 µg/mL (≈ 0.841 µM)

## CC[C@H](C)[C@H](NC(=O)[C@@H](Cc1ccccc1)NC)C(=O)N[C@@H](CO)C(=O)N[C@H](C)C(=O)N[C@@H](C(=O)N[C@H](C(=O)N[C@@H](C)C(=O)N[C@H]1C(=O)N[C@@H](C)C(=O)N[C@@H](CCCCN)C(=O)N[C@@H]([C@@H](C)CC)C(=O)O[C@H]1C)[C@@H](C)CC)[C@@H](C)CC
[6]
  MIC: 1 µg/mL (≈ 0.875 µM)
[5]
  MIC: 4 µg/mL (≈ 3.5 µM)

## CC[C@H](C)[C@H](NC(=O)[C@@H](Cc1ccccc1)NC)C(=O)N[C@@H](CO)C(=O)N[C@H](CCC(N)=O)C(=O)N[C@@H](C(=O)N[C@H](C(=O)N[C@@H](CO)C(=O)N[C@H]1C(=O)N[C@@H](C)C(=O)N[C@@H](CCCCN)C(=O)N[C@@H]([C@@H](C)CC)C(=O)O[C@H]1C)[C@@H](C)CC)[C@@H](C)CC
[1]
  MIC: 1 µg/mL (≈ 0.822 µM)
[2]
  MIC: 0.25 µg/mL (≈ 0.206 µM)

## CC[C@H](C)[C@H](NC(=O)[C@@H](Cc1ccccc1)NC)C(=O)N[C@@H](CO)C(=O)N[C@H](CCCCN)C(=O)N[C@@H](C(=O)N[C@H](C(=O)N[C@@H](C)C(=O)N[C@H]1C(=O)N[C@@H](C)C(=O)NC(CCCN)C(=O)N[C@@H]([C@@H](C)CC)C(=O)O[C@H]1C)[C@@H](C)CC)[C@@H](C)CC (some centres not stated)
[6]
  MIC: 2 µg/mL (≈ 1.69 µM)
[5]
  MIC: 2 µg/mL (≈ 1.69 µM)

## CC[C@H](C)[C@H](NC(=O)[C@@H](Cc1ccccc1)NC)C(=O)N[C@@H](CO)C(=O)N[C@H](CCC(N)=O)C(=O)N[C@@H](C(=O)NC(C(=O)N[C@@H](CO)C(=O)N[C@H]1C(=O)N[C@@H](C)C(=O)N[C@@H](CCCNC(=N)N)C(=O)NC(C2CCCCC2)C(=O)O[C@H]1C)C1CCCCC1)[C@@H](C)CC (some centres not stated)
[5]
  MIC: 1 µg/mL (≈ 0.771 µM)

## CC[C@H](C)[C@H](NC(=O)[C@@H](Cc1ccccc1)NC)C(=O)N[C@@H](CO)C(=O)N[C@H](CCC(N)=O)C(=O)N[C@@H](C(=O)N[C@H](C(=O)N[C@@H](CO)C(=O)N[C@H]1C(=O)N[C@@H](C)C(=O)NC(CN)C(=O)N[C@@H]([C@@H](C)CC)C(=O)O[C@H]1C)[C@@H](C)CC)[C@@H](C)CC (some centres not stated)
[1]
  MIC: 4 µg/mL (≈ 3.41 µM)
[2]
  MIC: 0.5 µg/mL (≈ 0.426 µM)

## CC[C@H](C)[C@H](NC(=O)[C@@H](Cc1ccccc1)NC)C(=O)N[C@@H](CO)C(=O)N[C@H](CCC(N)=O)C(=O)N[C@@H](C(=O)N[C@H](C(=O)N[C@@H](CO)C(=O)N[C@H]1C(=O)N[C@@H](C)C(=O)N[C@@H](CNC(=N)N)C(=O)N[C@@H]([C@@H](C)CC)C(=O)O[C@H]1C)[C@@H](C)CC)[C@@H](C)CC
[1]
  MIC: 4 µg/mL (≈ 3.29 µM)
[2]
  MIC: 1 µg/mL (≈ 0.822 µM)

## CC[C@H](C)[C@H](NC(=O)[C@H](NC(=O)[C@@H](CCC(N)=O)NC(=O)[C@H](CO)NC(=O)[C@H](C)NC(=O)[C@@H](Cc1ccccc1)NC)[C@@H](C)CC)C(=O)N[C@@H](CO)C(=O)N[C@H]1C(=O)N[C@@H](C)C(=O)N[C@@H](CCCCN)C(=O)N[C@@H]([C@@H](C)CC)C(=O)O[C@H]1C
[5]
  MIC: 32 µg/mL (≈ 27.2 µM)

## CC[C@H](C)[C@H](NC(=O)[C@@H](Cc1ccccc1)NC)C(=O)N[C@@H](CO)C(=O)N[C@H](CCC(N)=O)C(=O)N[C@@H](C(=O)N[C@H](C(=O)N[C@@H](C)C(=O)N[C@H]1C(=O)N[C@@H](C)C(=O)N[C@@H](CCCCN)C(=O)N[C@@H]([C@@H](C)CC)C(=O)O[C@H]1C)[C@@H](C)CC)[C@@H](C)CC
[3]
  MIC: 32 µg/mL (≈ 26.7 µM)
[4]
  MIC: 32 µg/mL (≈ 26.7 µM)

## CCCC1NC(=O)[C@H](CCCNC(=N)N)NC(=O)[C@H](C)NC(=O)[C@H](NC(=O)[C@H](CO)NC(=O)[C@@H](NC(=O)[C@H](NC(=O)[C@@H](CCC(N)=O)NC(=O)[C@H](CO)NC(=O)[C@@H](NC(=O)[C@@H](Cc2ccccc2)NC)[C@@H](C)CC)[C@@H](C)CC)[C@@H](C)CC)[C@H](C)OC1=O (some centres not stated)
[7]; [9]
  MIC: 8 µg/mL (≈ 6.5 µM)

## CC[C@H](C)[C@H](NC(=O)[C@H](Cc1ccccc1)NC)C(=O)N[C@@H](CO)C(=O)N[C@H](CCC(N)=O)C(=O)N[C@@H](C(=O)N[C@H](C(=O)N[C@@H](CO)C(=O)N[C@H]1C(=O)N[C@@H](C)C(=O)N[C@@H](CCCNC(=N)N)C(=O)N[C@@H]([C@@H](C)CC)C(=O)O[C@H]1C)[C@@H](C)CC)[C@@H](C)CC
[8]
  MIC: 2 µg/mL (≈ 1.61 µM)

## CCC1NC(=O)[C@H](CCCNC(=N)N)NC(=O)[C@H](C)NC(=O)[C@H](NC(=O)[C@H](CO)NC(=O)[C@@H](NC(=O)[C@H](NC(=O)[C@@H](CCC(N)=O)NC(=O)[C@H](CO)NC(=O)[C@@H](NC(=O)[C@@H](Cc2ccccc2)NC)[C@@H](C)CC)[C@@H](C)CC)[C@@H](C)CC)[C@H](C)OC1=O (some centres not stated)
[7]; [9]
  MIC: 16 µg/mL (≈ 13.2 µM)

## CC[C@H](C)[C@H](NC(=O)[C@@H](N)Cc1ccccc1)C(=O)N[C@@H](CO)C(=O)N[C@H](CCC(N)=O)C(=O)N[C@@H](C(=O)N[C@H](C(=O)N[C@@H](CO)C(=O)N[C@H]1C(=O)N[C@@H](C)C(=O)N[C@@H](CCCNC(=N)N)C(=O)N[C@@H]([C@@H](C)CC)C(=O)O[C@H]1C)[C@@H](C)CC)[C@@H](C)CC
[8]
  MIC: 2 µg/mL (≈ 1.63 µM)

## CC[C@H](C)[C@H](NC(=O)[C@@H](Cc1ccccc1)NC(=O)c1ccccc1)C(=O)N[C@@H](CO)C(=O)N[C@H](CCC(N)=O)C(=O)N[C@@H](C(=O)N[C@H](C(=O)N[C@@H](CO)C(=O)N[C@H]1C(=O)N[C@@H](C)C(=O)N[C@@H](CCCNC(=N)N)C(=O)N[C@@H]([C@@H](C)CC)C(=O)O[C@H]1C)[C@@H](C)CC)[C@@H](C)CC
[8]
  MIC: 8 µg/mL (≈ 5.99 µM)

## CC[C@H](C)[C@H](NC(=O)[C@@H](Cc1ccccc1)NC)C(=O)N[C@@H](CO)C(=O)N[C@H](CCC(N)=O)C(=O)N[C@@H](C(=O)N[C@H](C(=O)N[C@@H](CO)C(=O)N[C@H]1C(=O)N[C@@H](C)C(=O)N[C@@H](CCNC(=N)N)C(=O)N[C@@H]([C@@H](C)CC)C(=O)O[C@H]1C)[C@@H](C)CC)[C@@H](C)CC
[1]
  MIC: 1 µg/mL (≈ 0.813 µM)
[2]
  MIC: 0.5 µg/mL (≈ 0.406 µM)

## CC[C@H](C)[C@H](NC(=O)[C@@H](C)NC(=O)[C@@H](CCC(N)=O)NC(=O)[C@H](CO)NC(=O)[C@@H](NC(=O)[C@@H](Cc1ccccc1)NC)[C@@H](C)CC)C(=O)N[C@@H](CO)C(=O)N[C@H]1C(=O)N[C@@H](C)C(=O)N[C@@H](CCCCN)C(=O)N[C@@H]([C@@H](C)CC)C(=O)O[C@H]1C
[5]
  MIC: 16 µg/mL (≈ 13.6 µM)

## CC[C@H](C)[C@H](NC(=O)[C@@H](Cc1ccccc1)N(C)C)C(=O)N[C@@H](CO)C(=O)N[C@H](CCC(N)=O)C(=O)N[C@@H](C(=O)N[C@H](C(=O)N[C@@H](CO)C(=O)N[C@H]1C(=O)N[C@@H](C)C(=O)N[C@@H](CCCNC(=N)N)C(=O)N[C@@H]([C@@H](C)CC)C(=O)O[C@H]1C)[C@@H](C)CC)[C@@H](C)CC
[8]
  MIC: 16 µg/mL (≈ 12.7 µM)

## CC[C@H](C)[C@H](NC(=O)[C@@H](Cc1ccccc1)NC)C(=O)N[C@@H](CO)C(=O)N[C@H](CCC(N)=O)C(=O)N[C@@H](C(=O)N[C@H](C(=O)N[C@@H](CO)C(=O)N[C@H]1C(=O)N[C@@H](C)C(=O)N[C@@H](CCCCN)C(=O)N[C@@H](C)C(=O)O[C@H]1C)[C@@H](C)CC)[C@@H](C)CC (H-[dNMeF]IS[dQ][d(aIle)]IS[dT]AKA; ester 8-C)
[6]
  MIC: 4 µg/mL (≈ 3.41 µM)
[5]
  MIC: 8 µg/mL (≈ 6.81 µM)

## CCCCC1NC(=O)[C@H](CCCN/C(=N\C)NC)NC(=O)[C@H](C)NC(=O)[C@H](NC(=O)[C@H](CO)NC(=O)[C@@H](NC(=O)[C@H](NC(=O)[C@@H](CCC(N)=O)NC(=O)[C@H](CO)NC(=O)[C@@H](NC(=O)[C@@H](Cc2ccccc2)NC)[C@@H](C)CC)[C@@H](C)CC)[C@@H](C)CC)[C@H](C)OC1=O (stereo in doubt; 127)
[7]
  MIC: 16 µg/mL (≈ 12.6 µM)

## CCCCC1NC(=O)[C@H](CCCN/C(=N\C)NC)NC(=O)[C@H](C)NC(=O)[C@H](NC(=O)[C@H](CO)NC(=O)[C@@H](NC(=O)[C@H](NC(=O)[C@@H](CCC(N)=O)NC(=O)[C@H](CO)NC(=O)[C@@H](NC(=O)[C@@H](Cc2ccccc2)NC)[C@@H](C)CC)[C@@H](C)CC)[C@@H](C)CC)[C@H](C)OC1=O (stereo in doubt; 128)
[7]; [9]
  MIC: 16 µg/mL (≈ 12.6 µM)
